Experimental data: patent publication US5910498A, “Pyridonecarboxylic acid derivatives or salts thereof and antibacterial agents comprising the same as active ingredient” (Wakunaga Seiyaku Kabushiki Kaisha, priority 1994, dated 1999)
Converted amounts (≈) assume the structure as drawn.

Tests used:
[1] = test system: S. aureus 209P; assay: Antibacterial action, MIC against S. aureus 209P (standard method of the Japanese Chemotherapy Society); assay type: cell-based; details: Staphylococcus aureus, read-out: minimum growth-inhibition concentration (MIC)
Description: (§1) A minimum growth-inhibition concentration (MIC: μg/ml) was measured according to the standard method of the Japanese Chemotherapy Society (CHEMOTHERAPY, 29 (1), 76, 1981).

[2] = test system: P. aeruginosa IFO3445; assay: Antibacterial action, MIC against P. aeruginosa IFO3445 (standard method of the Japanese Chemotherapy Society); assay type: cell-based; details: Pseudomonas aeruginosa, read-out: minimum growth-inhibition concentration (MIC)
Description: as §1

[3] = test system: female ICR mouse; assay: Phototoxicity test, ear abnormality after UV irradiation; assay type: in vivo; details: 40 mg/kg i.v., UV 320-400 nm 4 hours; for Frequency (ear abnormality), 0 hour / Frequency (ear abnormality), 24 hours / Frequency (ear abnormality), 48 hours: affected/total mice; for Rating (ear abnormality), 0 hour / Rating (ear abnormality), 24 hours / Rating (ear abnormality), 48 hours: point 0 no abnormality, 1 light, 2 medium erythema, 3 heavy erythema or edema
Description: After a compound to be tested (40 mg/kg/10 ml) was intravenously administered to a female ICR mouse (5-6 weeks old), ultraviolet radiation (320 to 400 nm, 1.8 mW/cm^2 /sec.) was irradiated for 4 hours. […] Ear abnormality was rated point 0 for no abnormality, point 1 for light erythema, point 2 for medium erythema, and point 3 for heavy erythema or edema.

[4] = test system: CHL cells; assay: Chromosomal aberration test, CHL cells; assay type: cell-based; details: 0 to 200 μg/ml; metabolic activation method (S9) and direct method 24 and 48 hours
Description: CHL cells (0.2 to 2×10^5 cells/well) suspended in an Eagle's MEM medium having 10% bovine fetal serum added thereto were incubated in a 60-mm dish. After the cells were cultured at 37° C. for 4 to 72 hours in the presence of 5% CO2, the medium was replaced by a medium containing an agent in a different concentration and culturing was continued under the same conditions. In the case of a metabolic activation method (S9 added medium), after 6 hours of culturing, the medium was replaced by a medium free of an agent and S9 and culturing was continued for a further 18 hours. In the case of a direct method, the cells were cultured in two ways for 24 hours and 48 hours. At the end of culturing, a chromosome sample was prepared according to the method prescribed by the Japan Surrounding Mutagen society.

SMILES	MIC [1] [µg/mL]	MIC [2] [µg/mL]	Chromosomal aberration (rate of structural aberration) [4]	Frequency (ear abnormality), 0 hour [3]	Rating (ear abnormality), 0 hour [3]	Frequency (ear abnormality), 24 hours [3]	Rating (ear abnormality), 24 hours [3]	Frequency (ear abnormality), 48 hours [3]	Rating (ear abnormality), 48 hours [3]
Nc1cc(-n2cc(C(=O)O)c(=O)c3cc(F)c(N4CC(N)C4)c(F)c32)c(F)cc1F [Example 150, 7-(3-aminoazetidin-1-yl)-1-(3-amino-4,6-difluorophenyl)-6,8-difluoro-1,4-dihydro-4-oxoquinoline-3-carboxylic acid]	0.025 (≈ 0.0592 µM)	0.2 (≈ 0.474 µM)		0/3	0	0/3	0	0/3	0
Nc1cc(-n2cc(C(=O)O)c(=O)c3c(O)c(F)c(N4CC[C@H](N)C4)cc32)c(F)cc1F [Example 160, 1-(3-amino-4,6-difluorophenyl)-7-[(3S)-3-aminopyrrolidin-1-yl]-6-fluoro-5-hydroxy-1,4-dihydro-4-oxoquinoline-3-carboxylic acid]	0.025 (≈ 0.0576 µM)	0.2 (≈ 0.46 µM)		0/3	0	0/3	0	0/3	0
Nc1cc(-n2cc(C(=O)O)c(=O)c3cc(F)c(N4CC[C@H](N)C4)nc32)c(F)cc1F [Example 48, 1-(3-amino-4,6-difluorophenyl)-7-[(3S)-3-aminopyrrolidin-1-yl]-6-fluoro-1,4-dihydro-4-oxo-1,8-naphthyridine-3-carboxylic acid]	0.025 (≈ 0.0596 µM)	0.1 (≈ 0.238 µM)	negative	0/3	0	0/3	0	0/3	0
NC1CCN(c2nc3c(cc2F)c(=O)c(C(=O)O)cn3-c2ccc(F)cc2F)C1 (stereo not drawn) [tosufloxacin, reference compound]	0.05 (≈ 0.124 µM)	0.39 (≈ 0.965 µM)		4/5	1.8	4/5	0.8	1/5	0.2
Nc1cc(-n2cc(C(=O)O)c(=O)c3cc(F)c(N4CC(N)C4)nc32)c(F)cc1F [Example 117, 7-(3-aminoazetidin-1-yl)-1-(3-amino-4,6-difluorophenyl)-6-fluoro-1,4-dihydro-4-oxo-1,8-naphthyridine-3-carboxylic acid]	0.05 (≈ 0.123 µM)	0.1 (≈ 0.247 µM)	negative	0/3	0	0/3	0	0/3	0
C[C@@H]1CN(c2nc3c(cc2F)c(=O)c(C(=O)O)cn3-c2cc(N)c(F)cc2F)C[C@H]1N [Example 56, 1-(3-amino-4,6-difluorophenyl)-7-[(3S,4R)-3-amino-4-methylpyrrolidin-1-yl]-6-fluoro-1,4-dihydro-4-oxo-1,8-naphthyridine-3-carboxylic acid]	0.025 (≈ 0.0577 µM)	0.1 (≈ 0.231 µM)							

These reach a lower MIC [1]. Values come first.

MIC [1] [µg/mL]	MIC [2] [µg/mL]	Chromosomal aberration (rate of structural aberration) [4]	SMILES	Frequency (ear abnormality), 0 hour [3]	Rating (ear abnormality), 0 hour [3]	Frequency (ear abnormality), 24 hours [3]	Rating (ear abnormality), 24 hours [3]	Frequency (ear abnormality), 48 hours [3]	Rating (ear abnormality), 48 hours [3]
< 0.013	0.1 (≈ 0.221 µM)		CNC1CN(c2c(F)cc3c(=O)c(C(=O)O)cn(-c4cc(N)c(F)cc4F)c3c2Cl)C1 [Example 157, 1-(3-amino-4,6-difluorophenyl)-8-chloro-6-fluoro-7-(3-methylaminoazetidin-1-yl)-1,4-dihydro-4-oxoquinoline-3-carboxylic acid]						
0.013 (≈ 0.0301 µM)	0.2 (≈ 0.463 µM)		Cc1c(F)c(N2CC[C@H](N)C2)cc2c1c(=O)c(C(=O)O)cn2-c1cc(N)c(F)cc1F [Example 162, 1-(3-amino-4,6-difluorophenyl)-7-[(3S)-3-aminopyrrolidin-1-yl]-6-fluoro-5-methyl-1,4-dihydro-4-oxoquinoline-3-carboxylic acid]						
< 0.013	0.05 (≈ 0.114 µM)		Nc1cc(-n2cc(C(=O)O)c(=O)c3cc(F)c(N4CC(N)C4)c(Cl)c32)c(F)cc1F [Example 152, 7-(3-aminoazetidin-1-yl)-1-(3-amino-4,6-difluorophenyl)-8-chloro-6-fluoro-1,4-dihydro-4-oxoquinoline-3-carboxylic acid]	0/3	0	0/3	0	0/3	0
0.013 (≈ 0.0311 µM)	0.1 (≈ 0.239 µM)		Nc1cc(-n2cc(C(=O)O)c(=O)c3cc(F)c(N4CC[C@H](N)C4)cc32)c(F)cc1F [Example 60, 1-(3-amino-4,6-difluorophenyl)-7-[(3S)-3-aminopyrrolidin-1-yl]-6-fluoro-1,4-dihydro-4-oxoquinoline-3-carboxylic acid]						
< 0.013	0.1 (≈ 0.221 µM)		CC1(N)CN(c2c(F)cc3c(=O)c(C(=O)O)cn(-c4cc(N)c(F)cc4F)c3c2Cl)C1 [Example 156, 1-(3-amino-4,6-difluorophenyl)-7-(3-amino-3-methylazetidin-1-yl)-8-chloro-6-fluoro-1,4-dihydro-4-oxoquinoline-3-carboxylic acid]						
